HELM strings list units from the 5' end as sugar, base in round brackets, then linkage (d deoxyribose, r ribose, m 2'-O-methyl, p phosphodiester). Strings are as the collection lists them, not checked against the first reports. ss, as = sense and antisense strand; [lna] = locked nucleic acid (LNA); [hna] = hexitol nucleic acid; [s4r] = 4'-thioribose; [fl2r] = 2'-fluoro

For 14 substances, target mRNA knockdown results are on record in the OligoGym collection.
Note: test system not given here.

For this data set the following is noted: siRNA.
“RNA1{r(G)p.r(A)p.r(C)p.r(G)p.[hna](U)p.r(A)p.r(A)p.[hna](A)p.r(C)p.r(G)p.[hna](G)p.r(C)p.r(C)p.[hna](A)p.r(C)p.r(A)p.r(A)p.r(G)p.r(U)p.r(U)p.d(T)}|RNA2{r(A)p.r(C)p.r(U)p.r(U)p.r(G)p.r(U)p.r(G)p.r(G)p.r(C)p.r(C)p.r(G)p.r(U)p.r(U)p.r(U)p.r(A)p.r(C)p.r(G)p.r(U)p.[lna](C)p.[lna](G)p.r(C)}$$$RNA1{StrandType:ss}|RNA2{StrandType:as}$” registered a target mRNA knockdown of 77.3%. In the case of “RNA1{r(C)p.m(U)p.r(A)p.r(G)p.r(U)p.r(C)p.r(G)p.r(A)p.m(A)p.r(A)p.r(G)p.r(A)p.m(A)p.m(A)p.r(A)p.r(C)p.r(G)p.r(G)p.r(G)p.r(T)p.r(T)}|RNA2{r(C)p.r(C)p.r(C)p.r(G)p.r(U)p.r(U)p.r(U)p.r(U)p.r(C)p.r(U)p.r(U)p.r(U)p.r(C)p.r(G)p.r(A)p.r(C)p.m(U)p.r(A)p.r(G)p.r(T)p.r(T)}$$$RNA1{StrandType:ss}|RNA2{StrandType:as}$” it was 55%; in that of “RNA1{r(G)p.r(A)p.r(A)p.r(G)p.r(A)p.r(U)p.r(A)p.r(G)p.r(G)p.r(A)p.r(A)p.r(G)p.r(G)p.r(G)p.r(G)p.r(C)p.r(U)p.r(U)p.r(C)p.r(T)p.r(T)}|RNA2{r(G)p.r(A)p.r(A)p.r(G)p.[fl2r](C)p.[fl2r](C)p.[fl2r](C)p.[fl2r](C)p.[fl2r](U)p.[fl2r](U)p.[fl2r](C)p.[fl2r](C)p.[fl2r](U)p.r(A)p.[fl2r](U)p.[fl2r](C)p.[fl2r](U)p.[fl2r](U)p.[fl2r](C)p.r(T)p.r(T)}$$$RNA1{StrandType:ss}|RNA2{StrandType:as}$”, 5%; in that of “RNA1{r(G)p.r(C)p.r(G)p.r(C)p.r(U)p.r(G)p.r(C)p.r(U)p.r(G)p.r(G)p.r(U)p.r(G)p.r(C)p.r(C)p.r(A)p.r(A)p.r(C)p.r(C)p.r(C)p.d(T)p.d(T)}|RNA2{r(G)p.r(G)p.r(G)p.r(U)p.r(U)p.r(G)p.r(G)p.r(C)p.r(A)p.r(C)p.r(C)p.r(A)p.r(G)p.r(C)p.r(A)p.r(G)p.r(C)p.r(G)p.r(C)p.d(T)p.d(T)}$$$RNA1{StrandType:ss}|RNA2{StrandType:as}$”, 74%. As for “RNA1{r(G)p.r(A)p.r(A)p.m(U)p.r(A)p.r(A)p.r(C)p.r(C)p.r(U)p.r(G)p.r(A)p.r(A)p.r(C)p.r(G)p.r(U)p.r(C)p.r(A)p.r(C)p.r(C)p.r(T)p.r(T)}|RNA2{r(G)p.r(G)p.r(U)p.r(G)p.r(A)p.r(C)p.r(G)p.r(U)p.r(U)p.r(C)p.r(A)p.r(G)p.r(G)p.r(U)p.m(U)p.r(A)p.r(U)p.r(U)p.r(C)p.r(T)p.r(T)}$$$RNA1{StrandType:ss}|RNA2{StrandType:as}$”, the figure is 55%; as for “RNA1{[s4r](C)p.[s4r](G)p.[s4r](U)p.[s4r](A)p.[s4r](C)p.[s4r](G)p.[s4r](C)p.[s4r](G)p.[s4r](G)p.[s4r](A)p.[s4r](A)p.[s4r](U)p.[s4r](A)p.[s4r](C)p.[s4r](U)p.[s4r](U)p.[s4r](C)p.[s4r](G)p.[s4r](A)p.r(T)p.r(T)}|RNA2{r(U)p.r(C)p.r(G)p.r(A)p.r(A)p.r(G)p.r(U)p.r(A)p.r(U)p.r(U)p.r(C)p.r(C)p.r(G)p.r(C)p.r(G)p.r(U)p.r(A)p.r(C)p.r(G)p.r(T)p.r(T)}$$$RNA1{StrandType:ss}|RNA2{StrandType:as}$”, 60.3%. Substance “RNA1{r(U)p.r(C)p.r(U)p.r(C)p.r(G)p.r(U)p.r(A)p.r(A)p.r(G)p.r(G)p.r(A)p.r(C)p.r(G)p.r(A)p.r(A)p.r(A)p.r(C)p.r(G)p.r(A)p.r(T)p.r(T)}|RNA2{r(U)p.r(C)p.r(G)p.r(U)p.r(U)p.r(U)p.r(C)p.r(G)p.r(U)p.r(C)p.r(C)p.r(U)p.m(U)p.r(A)p.r(C)p.r(G)p.r(A)p.r(G)p.r(A)p.r(T)p.r(T)}$$$RNA1{StrandType:ss}|RNA2{StrandType:as}$” displayed a target mRNA knockdown of 55%. The substance “RNA1{r(C)p.m(U)p.m(A)p.r(C)p.r(C)p.r(U)p.r(U)p.r(C)p.r(U)p.r(C)p.r(C)p.r(U)p.r(C)p.r(U)p.r(U)p.r(C)p.r(U)p.r(C)p.r(C)p.r(T)p.r(T)}|RNA2{r(G)p.r(G)p.r(A)p.r(G)p.r(A)p.r(A)p.r(G)p.r(A)p.r(G)p.r(G)p.r(A)p.r(G)p.r(A)p.r(A)p.r(G)p.r(G)p.m(U)p.m(A)p.r(G)p.r(T)p.r(T)}$$$RNA1{StrandType:ss}|RNA2{StrandType:as}$” displayed a target mRNA knockdown of 68%.

As for “RNA1{r(C)p.r(G)p.r(U)p.r(A)p.r(C)p.r(G)p.[s4r](C)p.[s4r](G)p.[s4r](G)p.[s4r](A)p.[s4r](A)p.[s4r](U)p.[s4r](A)p.r(C)p.r(U)p.r(U)p.r(C)p.r(G)p.r(A)p.r(T)p.r(T)}|RNA2{r(U)p.r(C)p.r(G)p.r(A)p.r(A)p.r(G)p.r(U)p.r(A)p.r(U)p.r(U)p.r(C)p.r(C)p.r(G)p.r(C)p.r(G)p.r(U)p.r(A)p.r(C)p.r(G)p.r(T)p.r(T)}$$$RNA1{StrandType:ss}|RNA2{StrandType:as}$”, the target mRNA knockdown came out at 87.4%. “RNA1{m(G)p.r(C)p.m(A)p.r(A)p.m(G)p.r(U)p.m(G)p.r(G)p.m(C)p.r(A)p.m(A)p.r(G)p.m(A)p.r(G)p.m(G)p.r(A)p.m(U)p.r(U)p.r(A)p.r(T)p.r(T)}|RNA2{r(U)p.r(A)p.r(A)p.r(U)p.r(C)p.r(C)p.r(U)p.r(C)p.r(U)p.r(U)p.r(G)p.r(C)p.r(C)p.r(A)p.r(C)p.r(U)p.r(U)p.r(G)p.r(C)p.r(T)p.r(T)}$$$RNA1{StrandType:ss}|RNA2{StrandType:as}$” had a target mRNA knockdown of 55%.

“RNA1{r(C)p.r(G)p.r(U)p.r(A)p.r(C)p.r(G)p.r(C)p.r(G)p.r(G)p.r(A)p.r(A)p.r(U)p.r(A)p.r(C)p.r(U)p.r(U)p.r(C)p.r(G)p.r(A)p.r(T)p.r(T)}|RNA2{m(U)p.m(C)p.m(G)p.m(A)p.m(A)p.m(G)p.r(U)p.r(A)p.r(U)p.r(U)p.r(C)p.r(C)p.r(G)p.r(C)p.r(G)p.r(U)p.r(A)p.r(C)p.r(G)p.r(T)p.r(T)}$$$RNA1{StrandType:ss}|RNA2{StrandType:as}$” gave a target mRNA knockdown of 10.3%.

“RNA1{r(G)p.r(A)p.r(C)p.r(G)p.r(U)p.r(A)p.r(A)p.r(A)p.r(C)p.r(G)p.r(G)p.r(C)p.r(C)p.r(A)p.r(C)p.r(A)p.r(A)p.r(G)p.r(U)p.[lna](T)p.[lna](C)}|RNA2{r(A)p.m(C)p.r(U)p.r(U)p.r(G)p.r(U)p.r(G)p.r(G)p.r(C)p.r(C)p.r(G)p.r(U)p.r(U)p.r(U)p.r(A)p.r(C)p.r(G)p.r(U)p.r(C)p.r(G)p.r(C)}$$$RNA1{StrandType:ss}|RNA2{StrandType:as}$” registered a target mRNA knockdown of 81%. “RNA1{r(G)p.r(A)p.r(C)p.r(G)p.[hna](U)p.r(A)p.r(A)p.[hna](A)p.r(C)p.r(G)p.[hna](G)p.r(C)p.r(C)p.[hna](A)p.r(C)p.r(A)p.r(A)p.r(G)p.r(U)p.r(U)p.d(T)}|RNA2{r(A)p.[hna](C)p.r(U)p.r(U)p.r(G)p.r(U)p.r(G)p.r(G)p.[hna](C)p.r(C)p.r(G)p.r(U)p.r(U)p.r(U)p.r(A)p.r(C)p.r(G)p.[hna](U)p.[hna](C)p.[hna](G)p.d(T)}$$$RNA1{StrandType:ss}|RNA2{StrandType:as}$”: the target mRNA knockdown amounted to 0%.

In the case of “RNA1{r(G)p.r(A)p.r(C)p.r(A)p.r(A)p.r(G)p.r(G)p.r(G)p.r(A)p.r(A)p.r(G)p.r(G)p.r(U)p.m(U)p.r(A)p.r(G)p.r(C)p.r(C)p.r(U)p.r(T)p.r(T)}|RNA2{r(A)p.r(G)p.r(G)p.r(C)p.m(U)p.r(A)p.r(A)p.r(C)p.r(C)p.r(U)p.r(U)p.r(C)p.r(C)p.r(C)p.r(U)p.r(U)p.r(G)p.r(U)p.r(C)p.r(T)p.r(T)}$$$RNA1{StrandType:ss}|RNA2{StrandType:as}$”, the target mRNA knockdown came to 72%.
